Several values for one entry are separate records, joined by “and”; a condition that tells them apart may be missing. Equal entries are not always repeated. Where two headings read alike, the source gives them in different places.
Experiments:
Assay type in all cases: cell-based
[1] = biological target: protein kinases (human kinome) (Homo sapiens, UniProt Q8NI60); conditions: experiment wp084
[2] = biological target: T1, protein kinases (human kinome) (Homo sapiens, UniProt Q96L34); conditions: for logFC MARK4: Accession Q96L34-1
T1 sequence (Q96L34 1-752): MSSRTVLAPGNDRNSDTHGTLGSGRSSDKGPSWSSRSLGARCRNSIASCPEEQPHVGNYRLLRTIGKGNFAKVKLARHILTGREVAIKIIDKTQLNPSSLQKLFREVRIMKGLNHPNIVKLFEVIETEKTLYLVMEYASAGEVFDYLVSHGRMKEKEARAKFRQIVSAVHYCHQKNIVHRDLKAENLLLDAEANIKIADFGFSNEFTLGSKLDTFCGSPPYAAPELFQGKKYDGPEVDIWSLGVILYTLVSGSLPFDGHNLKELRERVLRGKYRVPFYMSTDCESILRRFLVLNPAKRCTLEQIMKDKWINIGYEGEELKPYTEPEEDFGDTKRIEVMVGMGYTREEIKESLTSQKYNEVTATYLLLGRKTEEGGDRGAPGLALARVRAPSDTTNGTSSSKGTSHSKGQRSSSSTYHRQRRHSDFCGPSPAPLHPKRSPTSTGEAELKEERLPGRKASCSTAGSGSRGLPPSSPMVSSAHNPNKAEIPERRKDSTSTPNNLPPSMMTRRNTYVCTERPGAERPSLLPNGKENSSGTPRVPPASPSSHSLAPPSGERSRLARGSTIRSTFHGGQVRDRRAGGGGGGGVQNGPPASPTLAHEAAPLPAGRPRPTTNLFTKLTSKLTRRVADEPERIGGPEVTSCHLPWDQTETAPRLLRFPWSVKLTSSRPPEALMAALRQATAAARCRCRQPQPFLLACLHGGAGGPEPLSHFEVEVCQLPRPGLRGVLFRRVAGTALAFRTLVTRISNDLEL

[3] = biological target: protein kinases (human kinome) (Homo sapiens, UniProt Q14289); conditions: for logFC: PTK2B (Q14289-1) protein abundance, degrader vs DMSO, down; for logFC PTK2B: accession Q14289-1, direction of change down
Chain of protein kinases (human kinome) (Homo sapiens, UniProt Q14289) (Q14289 whole entry): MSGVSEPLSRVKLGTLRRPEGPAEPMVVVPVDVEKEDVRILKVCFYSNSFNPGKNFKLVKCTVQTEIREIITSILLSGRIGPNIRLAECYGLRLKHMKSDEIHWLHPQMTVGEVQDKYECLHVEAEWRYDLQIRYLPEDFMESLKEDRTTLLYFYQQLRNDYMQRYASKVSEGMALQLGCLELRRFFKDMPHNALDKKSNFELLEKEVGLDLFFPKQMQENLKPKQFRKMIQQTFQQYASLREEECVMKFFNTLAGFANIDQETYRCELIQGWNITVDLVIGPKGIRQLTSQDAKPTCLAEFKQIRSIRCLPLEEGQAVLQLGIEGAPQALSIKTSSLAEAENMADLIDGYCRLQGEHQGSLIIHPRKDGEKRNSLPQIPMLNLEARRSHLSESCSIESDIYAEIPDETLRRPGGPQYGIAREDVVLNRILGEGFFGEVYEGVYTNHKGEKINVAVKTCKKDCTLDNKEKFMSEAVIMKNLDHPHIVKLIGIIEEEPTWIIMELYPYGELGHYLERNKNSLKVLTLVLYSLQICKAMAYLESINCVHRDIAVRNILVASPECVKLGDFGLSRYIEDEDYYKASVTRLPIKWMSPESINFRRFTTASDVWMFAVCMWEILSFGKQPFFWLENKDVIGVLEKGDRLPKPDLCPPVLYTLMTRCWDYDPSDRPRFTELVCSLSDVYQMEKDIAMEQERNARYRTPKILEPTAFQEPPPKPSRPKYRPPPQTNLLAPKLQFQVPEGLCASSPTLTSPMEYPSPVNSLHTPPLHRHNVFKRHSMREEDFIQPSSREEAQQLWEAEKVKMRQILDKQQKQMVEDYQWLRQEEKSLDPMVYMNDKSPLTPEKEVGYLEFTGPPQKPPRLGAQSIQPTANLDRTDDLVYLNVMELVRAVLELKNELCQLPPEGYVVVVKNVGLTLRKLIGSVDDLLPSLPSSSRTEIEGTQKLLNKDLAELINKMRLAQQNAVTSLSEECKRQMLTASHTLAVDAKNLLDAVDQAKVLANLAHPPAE

[4] = biological target: protein kinases (human kinome) (Homo sapiens, UniProt Q16539); conditions: for logFC MAPK14: MAPK14, accession Q16539, direction of change down
Chain of protein kinases (human kinome) (Homo sapiens, UniProt Q16539) (Q16539 whole entry): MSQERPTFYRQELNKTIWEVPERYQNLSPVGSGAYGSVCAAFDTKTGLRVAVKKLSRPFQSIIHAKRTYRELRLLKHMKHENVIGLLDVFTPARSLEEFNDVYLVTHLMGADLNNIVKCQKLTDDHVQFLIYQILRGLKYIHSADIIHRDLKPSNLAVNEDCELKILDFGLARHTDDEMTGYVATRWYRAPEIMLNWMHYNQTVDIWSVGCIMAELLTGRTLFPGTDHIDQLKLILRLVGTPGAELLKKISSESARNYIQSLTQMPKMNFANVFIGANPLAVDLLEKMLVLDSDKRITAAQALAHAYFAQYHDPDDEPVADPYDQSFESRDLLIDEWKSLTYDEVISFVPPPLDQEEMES

[5] = biological target: T2, protein kinases (human kinome) (Homo sapiens, UniProt Q12851); conditions: for logFC MAP4K2 (Q12851): direction down; for logFC: MAP4K2 (Q12851)
T2 sequence (Q12851 1-820): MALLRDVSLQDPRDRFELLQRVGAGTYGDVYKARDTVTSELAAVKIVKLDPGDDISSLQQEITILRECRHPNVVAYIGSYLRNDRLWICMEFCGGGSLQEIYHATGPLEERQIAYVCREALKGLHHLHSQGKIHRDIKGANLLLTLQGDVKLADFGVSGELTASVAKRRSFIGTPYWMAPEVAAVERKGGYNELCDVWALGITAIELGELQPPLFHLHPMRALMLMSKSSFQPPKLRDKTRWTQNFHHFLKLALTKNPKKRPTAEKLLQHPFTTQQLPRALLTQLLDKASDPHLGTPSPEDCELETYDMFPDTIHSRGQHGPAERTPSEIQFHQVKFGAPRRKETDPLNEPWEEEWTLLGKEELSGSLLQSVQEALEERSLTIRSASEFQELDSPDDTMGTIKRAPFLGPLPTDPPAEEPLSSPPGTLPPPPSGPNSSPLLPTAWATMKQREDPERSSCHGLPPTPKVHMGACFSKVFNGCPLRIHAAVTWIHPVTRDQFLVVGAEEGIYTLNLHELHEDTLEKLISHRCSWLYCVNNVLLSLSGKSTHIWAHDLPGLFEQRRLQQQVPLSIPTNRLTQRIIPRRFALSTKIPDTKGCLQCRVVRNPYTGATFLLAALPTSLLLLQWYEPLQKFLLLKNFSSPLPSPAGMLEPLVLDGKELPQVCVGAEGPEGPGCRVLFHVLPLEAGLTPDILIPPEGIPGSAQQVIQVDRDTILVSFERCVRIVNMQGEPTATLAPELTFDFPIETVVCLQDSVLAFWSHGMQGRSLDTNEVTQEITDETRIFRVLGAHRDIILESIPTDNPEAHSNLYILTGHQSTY

[6] = biological target: protein kinases (human kinome) (Homo sapiens, UniProt O43683); conditions: for logFC: BUB1 (O43683), experiment wp076; for logFC BUB1 (O43683): Experiment wp076, direction down
Chain of protein kinases (human kinome) (Homo sapiens, UniProt O43683) (O43683 whole entry): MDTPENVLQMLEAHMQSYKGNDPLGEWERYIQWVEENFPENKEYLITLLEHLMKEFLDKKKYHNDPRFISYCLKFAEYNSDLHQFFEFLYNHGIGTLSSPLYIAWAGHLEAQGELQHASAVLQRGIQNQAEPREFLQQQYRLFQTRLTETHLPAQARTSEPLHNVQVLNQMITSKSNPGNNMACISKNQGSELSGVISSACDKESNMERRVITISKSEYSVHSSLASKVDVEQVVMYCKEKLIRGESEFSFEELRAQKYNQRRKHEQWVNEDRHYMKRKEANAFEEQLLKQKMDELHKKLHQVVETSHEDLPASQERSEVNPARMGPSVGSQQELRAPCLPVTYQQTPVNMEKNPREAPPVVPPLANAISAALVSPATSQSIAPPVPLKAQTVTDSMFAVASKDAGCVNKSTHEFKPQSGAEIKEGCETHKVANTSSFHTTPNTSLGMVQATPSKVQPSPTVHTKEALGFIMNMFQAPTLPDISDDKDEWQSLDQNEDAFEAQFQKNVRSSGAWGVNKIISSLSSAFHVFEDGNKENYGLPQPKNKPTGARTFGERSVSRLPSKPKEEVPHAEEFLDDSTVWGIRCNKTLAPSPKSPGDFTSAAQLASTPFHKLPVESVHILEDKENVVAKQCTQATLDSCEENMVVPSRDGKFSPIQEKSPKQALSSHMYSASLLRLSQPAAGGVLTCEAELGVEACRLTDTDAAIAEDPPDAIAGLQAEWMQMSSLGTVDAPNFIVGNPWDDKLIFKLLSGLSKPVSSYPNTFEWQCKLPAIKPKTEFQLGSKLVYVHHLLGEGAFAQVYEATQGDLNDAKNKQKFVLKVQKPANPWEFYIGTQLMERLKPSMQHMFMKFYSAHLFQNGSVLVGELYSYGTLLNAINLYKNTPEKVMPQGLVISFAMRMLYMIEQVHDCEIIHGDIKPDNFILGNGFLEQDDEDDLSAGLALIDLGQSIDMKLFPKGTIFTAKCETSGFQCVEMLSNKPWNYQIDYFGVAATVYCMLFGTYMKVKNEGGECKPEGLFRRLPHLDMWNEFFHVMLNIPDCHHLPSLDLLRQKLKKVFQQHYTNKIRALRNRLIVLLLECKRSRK

[7] = biological target: protein kinases (human kinome) (Homo sapiens, UniProt Q00537); conditions: for logFC of CDK17: Accession Q00537; for logFC CDK17 (Q00537): direction of change down
Chain of protein kinases (human kinome) (Homo sapiens, UniProt Q00537) (Q00537 whole entry): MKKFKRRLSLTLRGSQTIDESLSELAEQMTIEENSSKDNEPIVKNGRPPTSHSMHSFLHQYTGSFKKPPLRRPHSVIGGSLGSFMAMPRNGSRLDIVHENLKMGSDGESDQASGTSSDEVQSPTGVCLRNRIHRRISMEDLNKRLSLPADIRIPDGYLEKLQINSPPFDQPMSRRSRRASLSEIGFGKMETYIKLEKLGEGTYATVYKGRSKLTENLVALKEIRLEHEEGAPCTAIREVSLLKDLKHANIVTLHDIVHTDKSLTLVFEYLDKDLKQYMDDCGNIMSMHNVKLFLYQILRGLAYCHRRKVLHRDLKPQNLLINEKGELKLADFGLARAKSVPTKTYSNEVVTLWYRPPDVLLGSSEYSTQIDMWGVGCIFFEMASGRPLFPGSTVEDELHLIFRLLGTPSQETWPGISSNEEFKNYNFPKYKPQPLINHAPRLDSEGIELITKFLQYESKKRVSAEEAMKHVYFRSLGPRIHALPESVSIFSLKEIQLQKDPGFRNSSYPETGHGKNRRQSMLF

[8] = MAPK14 (Q16539) protein abundance, degrader vs DMSO, down

Chain of protein kinases (human kinome) (Homo sapiens, UniProt Q8NI60) (Q8NI60 163-647): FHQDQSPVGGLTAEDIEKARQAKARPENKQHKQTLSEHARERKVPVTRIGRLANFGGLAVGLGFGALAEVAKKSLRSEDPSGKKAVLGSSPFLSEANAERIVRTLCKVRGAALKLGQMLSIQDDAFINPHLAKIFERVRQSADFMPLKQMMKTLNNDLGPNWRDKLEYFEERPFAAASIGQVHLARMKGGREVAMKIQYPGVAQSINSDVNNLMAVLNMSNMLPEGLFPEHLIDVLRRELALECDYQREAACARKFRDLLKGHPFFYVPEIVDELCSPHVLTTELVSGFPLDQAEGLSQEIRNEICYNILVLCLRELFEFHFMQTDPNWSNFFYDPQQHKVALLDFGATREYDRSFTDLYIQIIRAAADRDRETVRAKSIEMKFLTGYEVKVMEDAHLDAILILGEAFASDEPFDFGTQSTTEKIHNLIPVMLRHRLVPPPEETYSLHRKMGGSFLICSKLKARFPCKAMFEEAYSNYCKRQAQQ

With `CC(=O)c1c(C)c2cnc(Nc3ccc(N4CCN(CCOCCOCCOCCNC(=O)COc5cccc6c5C(=O)N(C5CCC(=O)NC5=O)C6=O)CC4)cn3)nc2n(C2CCCC2)c1=O` (stereo not shown) [BSJ.03.123] the “logFC COQ8A (Q8N160-1)” value [1] was −0.4611 and the “logFC COQ8A (Q8NI60-1)” value [1] was −0.4611.

In the case of `CN(C)C(=O)c1cc2cnc(Nc3ccc(N4CCN(CCCCNC(=O)COc5cccc6c5C(=O)N(C5CCC(=O)NC5=O)C6=O)CC4)cn3)nc2n1C1CCCC1` (stereo not shown) [BSJ.04.132], the “logFC COQ8A (Q8N160-1)” value [1] is reported as −0.5939 and the “logFC COQ8A (Q8NI60-1)” value [1] is reported as −0.6939.

With `O=C(COc1cccc2c1C(=O)N(C1CCC(=O)NC1=O)C2=O)NCCCCCCCN1CCc2cc(Nc3ncc(C4CC4)c(NCCCNC(=O)C4CCC4)n3)ccc2C1` (stereo not shown) [BSJ.04.178] the “logFC MARK4” value ([2]; experiment wp134) was −0.993 and the “logFC MARK4 (Q96L34-1)” value ([2]; experiment wp134) was −0.993.

With `Cc1ncsc1-c1ccc([C@H](C)NC(=O)[C@@H]2C[C@@H](O)CN2C(=O)[C@@H](NC(=O)CCCCCN2CCc3cc(Nc4ncc(C5CC5)c(NCCCNC(=O)C5CCC5)n4)ccc3C2)C(C)(C)C)cc1` [BSJ.05.026] the “logFC MARK4” value ([2]; experiment wp195) was −1.571 and the “logFC MARK4 (Q96L34-1)” value ([2]; Experiment wp195) was −1.571.

`CS(=O)(=O)Nc1cccc(-c2csc3cnc(Nc4ccc(N5CCN(CCCCCOc6cccc7c6C(=O)N(C6CCC(=O)NC6=O)C7=O)CC5)cc4)nc23)c1` (stereo not shown) [DB0614, N-(3-(2-((4-(4-(5-((2-(2,6-Dioxopiperidin-3-yl)-1,3-dioxoisoindolin-4-yl)oxy)pentyl)piperazin-1-yl)phenyl)amino)thieno[3,2-d]pyrimidin-7-yl)phenyl)methanesulfonamide] was tested, and the logFC [3] was −1.425 and the “logFC PTK2B” value ([3]; experiment wp045) was −1.425.

In the case of `Cc1ccc(NC(=O)c2cccc(C(F)(F)F)c2)cc1N1Cc2cnc(Nc3ccc(N4CCN(CCCCCCOc5cccc6c5C(=O)N(C5CCC(=O)NC5=O)C6=O)CC4)nc3)nc2N(C)C1=O` (stereo not shown) [DB0663], the logFC [4, 8] is reported as −0.6293, the “logFC MAPK14” value ([4]; experiment wp045) is reported as −0.6293 and the “logFC MAP4K2 (Q12851)” value ([5]; Experiment wp046) is reported as −0.3823. The logFC ([5]; experiment wp045) was −0.3823, the logFC [3] was −1.961 and the “logFC PTK2B” value ([3]; experiment wp045) was −1.961.

For `Cc1ncsc1-c1ccc([C@H](C)NC(=O)[C@@H]2C[C@@H](O)CN2C(=O)[C@@H](NC(=O)CCOCCOCCN2CCN(c3ccc(Nc4ncc(Cl)c(Nc5ccccc5S(=O)(=O)C(C)C)n4)cc3)CC2)C(C)(C)C)cc1` [FMF.06.098.1], the “logFC MAP4K2 (Q12851)” value ([5]; Experiment wp108) was −0.5507, the “logFC MAP4K2 (Q12851)” value ([5]; Experiment wp131) was −0.6092 and the logFC ([5]; experiment wp108) was −0.5507. For the same compound, the logFC ([5]; experiment wp131) was −0.6092, the “logFC MARK4” value ([2]; experiment wp108) was −0.9041 and the “logFC MARK4” value ([2]; experiment wp114) was −0.7224. The “logFC MARK4” value ([2]; experiment wp131) was −1.111, the “logFC MARK4 (Q96L34-1)” value ([2]; Experiment wp108) was −0.9041 and the “logFC MARK4 (Q96L34-1)” value ([2]; experiment wp114) was −0.7224. The “logFC MARK4 (Q96L34-1)” value ([2]; experiment wp131) was −1.111.

In the case of `Cc1cnc(Nc2ccc(N3CCN(CCCCCCC(=O)N[C@H](C(=O)N4C[C@H](O)C[C@H]4C(=O)N[C@@H](C)c4ccc(-c5scnc5C)cc4)C(C)(C)C)CC3)cc2)nc1Nc1cccc(S(=O)(=O)NC(C)(C)C)c1` [JWG.123], the “logFC MARK4” value ([2]; experiment wp195) is reported as −1.532 and the “logFC MARK4 (Q96L34-1)” value ([2]; Experiment wp195) is reported as −1.532.

In the case of `CCc1cnn2c(N(Cc3ccc(N)nc3)C(=O)CCOCCOCCOCCNC(=O)CNc3cccc4c3C(=O)N(C3CCC(=O)NC3=O)C4=O)cc(N3CCCC[C@H]3CCO)nc12` (stereo partly shown) [MFH.5.115.2], the logFC [6] is reported as −0.5159 and the “logFC BUB1 (O43683)” value [6] is reported as −0.5159.

With `O=C1CCC(N2C(=O)c3cccc(NCCCCCCCCN4CCC(NC(=O)c5[nH]ncc5NC(=O)c5c(Cl)cccc5Cl)CC4)c3C2=O)C(=O)N1` (stereo not shown) [MFH.5.126.1] the “logFC of CDK17” value ([7]; experiment wp076) was −0.5894, the “logFC CDK17 (Q00537)” value ([7]; Experiment wp076) was −0.5894 and the logFC [6] was −0.9248. The “logFC BUB1 (O43683)” value [6] was −0.9248.

For `CS(=O)(=O)Nc1cccc(-c2csc3cnc(Nc4ccc(N5CCN(CCOCCOCCOc6cccc7c6C(=O)N(C6CCC(=O)NC6=O)C7=O)CC5)cc4)nc23)c1` (stereo not shown) [RSS0628], the logFC [3] was −1.517 and the “logFC PTK2B” value ([3]; experiment wp045) was −1.517.

For `Cc1ncsc1-c1ccc([C@H](C)NC(=O)[C@@H]2C[C@@H](O)CN2C(=O)[C@@H](NC(=O)CCCCCN2CCN(c3ccc(Nc4ncc5scc(-c6cccc(NS(C)(=O)=O)c6)c5n4)cc3)CC2)C(C)(C)C)cc1` [RSS0680, (2S,4R)-1-((S)-3,3-Dimethyl-2-(6-(4-(4-((7-(3-(methylsulfonamido)phenyl)thieno[3,2-d]pyrimidin-2-yl)amino)phenyl)piperazin-1-yl)hexanamido)butanoyl)-4-hydroxy-N—((S)-1-(4-(4-methylthiazol-5yl)phenyl)ethyl)pyrrolidine-2-carboxamide], the “logFC of CDK17” value ([7]; experiment wp080) was −0.7875, the “logFC of CDK17” value ([7]; experiment wp117) was −0.7193 and the “logFC CDK17 (Q00537)” value ([7]; experiment wp080) was −0.7875. For the same compound, the “logFC CDK17 (Q00537)” value ([7]; experiment wp117) was −0.7193, the “logFC MARK4” value ([2]; experiment wp080) was −0.4537 and the “logFC MARK4 (Q96L34-1)” value ([2]; experiment wp080) was −0.4537.

For `Cn1c(=O)c(-c2c(Cl)cccc2Cl)cc2cnc(Nc3ccc(OCCNC(=O)CCCCCCNC(=O)COc4cccc5c4C(=O)N(C4CCC(=O)NC4=O)C5=O)cc3)nc21` (stereo not shown) [SB1.G.192.1], the logFC [4, 8] was −0.8915 and −0.7293, the logFC ([4]; MAPK14 (Q16539), experiment wp131) was −0.7463 and the “logFC MAPK14” value ([4]; experiment wp071) was −0.8915. The “logFC MAPK14” value ([4]; experiment wp081) was −0.7293 and the “logFC MAPK14” value ([4]; experiment wp131) was −0.7463.

In the case of `CC(C)S(=O)(=O)c1ccccc1Nc1nc(Nc2ccc(N3CCN(CCOCCNC(=O)CNc4cccc5c4C(=O)N(C4CCC(=O)NC4=O)C5=O)CC3)cc2)ncc1Cl` (stereo not shown) [SK-3-91], the BUB1 degradation ([6]; MOLT-4 and MM.1S cell lines) is reported as “degraded”.

`CC(C)S(=O)(=O)c1ccccc1Nc1nc(Nc2ccc(N3CCN(CCOCCNC(=O)CNc4ccc5c(c4)C(=O)N(C4CCC(=O)NC4=O)C5=O)CC3)cc2)ncc1Cl` (stereo not shown) [SK.3.93] was tested, and the “logFC of CDK17” value ([7]; experiment wp016) was −0.7103, the “logFC CDK17 (Q00537)” value ([7]; experiment wp016) was −0.7103 and the logFC [3] was −3.269. The “logFC PTK2B” value ([3]; experiment wp016) was −3.269.

With `CC(C)S(=O)(=O)c1ccccc1Nc1nc(Nc2ccc(N3CCN(CCOCCOCCC(=O)NCCNc4cccc5c4CN(C4CCC(=O)NC4=O)C5=O)CC3)cc2)ncc1Cl` (stereo not shown) [TL13.97] the “logFC MARK4” value ([2]; experiment wp137) was −1.74 and the “logFC MARK4 (Q96L34-1)” value ([2]; experiment wp137) was −1.74.

With `Cc1ccc(C(=O)Nc2ccc(CN3CCN(CCOCCOCCNC(=O)CNc4cccc5c4C(=O)N(C4CCC(=O)NC4=O)C5=O)CC3)c(C(F)(F)F)c2)cc1C#Cc1cnc2cccnn12` (stereo not shown) [TL13.150] the logFC [4, 8] was −0.3738, the “logFC MAPK14” value ([4]; experiment wp081) was −0.3738 and the “logFC MAP4K2 (Q12851)” value ([5]; Experiment wp081) was −1.088. For the same compound, the logFC ([5]; experiment wp081) was −1.088.
